Assay results as given in patent publication US4055640A, “Compositions and methods for controlling the growth of bacteria, fungi and algae using certain derivatives of N-(2,2-dichlorovinyl)salicylamides” (Nippon Kayaku Co., Ltd., priority 1975, dated 1977).
In brackets after ≈: the same amount, converted by molar mass. Where a name gives a salt, the structure may show the parent alone.

What was measured:
[1] = acute oral toxicity against a mouse; conditions: in vivo
[2] = test system: seedling blight of rice plant (pathogen Fusarium sp. and Rhizoctonia sp.); assay: Exterminating test on seedling blight of rice plant (Experimental Example 1); type: in vivo; conditions: soil, 408 h, 0.25g/box a.i., 5% dust mixed with soil; read-out: Percentage of healthy seedlings
How it was run: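 Pathogen-contaminated nursery soil (Fusarium sp., Rhizoctonia sp.) mixed with 5% compound dust at 5 g per box; Nihonbare rice sown, grown 7 days at 17° C in lighting chamber, then moved to field. Assessed 10 days later as percentage of healthy seedlings; commercial 4% hydroxyisoxazol dust run as control.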

[3] = test system: Geotrichum candium; assay: Minimum inhibitory concentration, dilution methods (Example 14); type: cell-based
Source text: (§1) Bacteriocidal activity and fungicidal activity of the active compounds of the present invention were examined by potato-dextrose agar dilution method, [2] waxman's liquid medium dilution method or [3] glucose bouillon medium dilution method. The results are shown in Table 4 below as the minimum inhibitory concentration (the minimum concentration of active compound found to produce 100% control of the test bacteria and fungi).

[4] = test system: Pseudomonas fluorescens; assay: as above; type: cell-based
Source text: as §1

[5] = test system: Chaetomium globosum; assay: as above; type: cell-based
Source text: as §1

[6] = test system: green algae; assay: Degree of propagation on slime test boards (Example 27); type: cell-based; conditions: same method, shaking culture for 2 days
How it was run: (§2)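 Wood slime test boards were soaked in Waxman's liquid medium holding 0.02 part active compound (as 10% water-soluble concentrate) per 100 parts medium. Medium was inoculated with bacteria from a circular water system, fungi or green algae and shake-cultured 2 days at 27°-34° C. Propagation on the boards was scored with symbols.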

[7] = test system: fungi; assay: as above; type: cell-based; conditions: same method, shaking culture for 2 days
How it was run: as §2

[8] = test system: bacteria gathered from circular water system; assay: as above; type: cell-based; conditions: shaking culture for 2 days
How it was run: as §2

[9] = test system: Aspergillus niger, Penicillium citrinum, Cladosporium harbarum and chaetomium globosum; assay: Degree of growth inhibition of fungi on treated beach plates (Example 25); type: cell-based; parameters: scale not given here; conditions: numerical rating, 2 weeks
How it was run: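 Beech plates 5 cm square and 5 mm thick were dipped for 2 min in emulsifiable concentrate diluted 400- and 800-fold in water, then dried 24 h at room temperature. Plates were set on agar, sprayed with fungal spore suspensions and incubated 2 weeks at 28 °C and 95% humidity; growth inhibition was scored on a numerical rating.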

[10] = test system: Aspergillus niger, Penicillium citrinum, Cladosporium harbarum and chaetomium globosum; assay: Degree of growth inhibition of fungi on treated beach plates (Example 17); type: cell-based; parameters: scale not given here; conditions: numerical rating, 2 weeks
How it was run: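 Beech plates were dipped for 2 minutes in emulsifiable concentrate diluted 400- and 800-fold in water, then dried for 24 hours. They were laid on agar and sprayed with spores of each fungus, then incubated at 95% humidity and 28° C for 2 weeks. Growth inhibition was scored on a numerical rating scale.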

[11] = test system: green algae; assay: Degree of propagation on slime test boards (Example 19); type: cell-based; parameters: key: -: no propagation; +: the area of propagation is 1 - 25% on the slime test boards.; ++: the area of propagation is 26 - 50% on the slime test boards.; +++: the area of propagation is 51 - 75% on the slime test boards.; ++++: the area of propagation is 76 - 100% on the slime test boards
Procedure: (§3) Zero point zero two (0.02) part of active compounds in the form of 10% water soluble concentrate which was prepared by Example 13 was added into 100 parts of Waxman's liquid medium. Pieces of wood and iron (hereafter referred to as the slime test boards) were soaked into the Waxman's liquid medium. The bacteria which were gathered from circular water system were inoculated upon the Waxman's liquid medium and incubated at 27° C-34° C by shaking culture. The degree of propagation of the bacteria on the slime test boards was examined.
(§4) The growth-inhibiting activity of active compounds against the fungi and the green algae was also examined by the same method as mentioned above.
(§5) The degree of propagation of the bacteria, fungi or green algae on the slime test boards is defined in terms of the following symbols.

[12] = test system: fungi; assay: as above; type: cell-based; parameters: key: -: no propagation; +: the area of propagation is 1 - 25% on the slime test boards.; ++: the area of propagation is 26 - 50% on the slime test boards.; +++: the area of propagation is 51 - 75% on the slime test boards.; ++++: the area of propagation is 76 - 100% on the slime test boards
Procedure: as §3, §4, §5

[13] = test system: bacteria gathered from circular water system; assay: as above; type: cell-based; parameters: key: -: no propagation; +: the area of propagation is 1 - 25% on the slime test boards.; ++: the area of propagation is 26 - 50% on the slime test boards.; +++: the area of propagation is 51 - 75% on the slime test boards.; ++++: the area of propagation is 76 - 100% on the slime test boards
Procedure: as §3, §4, §5

[14] = test system: Bacteria, fungi and slime; assay: Inhibition of bacteria, fungi and slime in use (Example 13); conditions: water soluble concentrate; 10-20 ppm in water, 0.01%-0.1% in pastes
Procedure: Before application, the concentrate was diluted 500-1000 times with water and sprayed on the inside of cotes to prevent the growth of bacterial and fungi.
The solution was added to water in circular water systems to inhibit the growth of slime. The concentration of Compound No. 20 in the water was 10-20 ppm.
An amount from 0.01%-0.1% of Compound No. 20 as the solution was added to pastes or binding agents to prevent rottenness of them.

[15] = (1) potato-dextrose agar dilution method
[16] = (2) waxman's liquid medium dilution method

O=C(NC=C(Cl)Cl)c1ccccc1O [Compound No. 1, N-(β,β-dichlorovinyl) salicylamide]
LD50 [1]: > 6000 mg/kg | Percentage of healthy seedlings at 0.25 g/box [2]: 80.2% | MIC [3, 15]: 10 µg/mL (≈ 43.1 µM) | MIC [3, 16]: 20 µg/mL (≈ 86.2 µM) | minimum inhibitory concentration [4, 15]: 40 mc g/ml | MIC ([4]; Pseudomonas fluorescens, (2) waxman's liquid medium dilution method): 40 µg/mL (≈ 172 µM) | MIC [5, 15]: 5 µg/mL (≈ 21.5 µM) | MIC [5, 16]: 10 µg/mL (≈ 43.1 µM)

CC(=O)Oc1ccccc1C(=O)NC=C(Cl)Cl [Compound No. 6, O-acetyl-N-(2,2-dichlorovinyl) salicylamide]
Degree of propagation [6]: - | Degree of propagation [7]: - | Degree of propagation [8]: - | Percentage of healthy seedlings at 0.25 g/box [2]: 83.2% | Degree of growth inhibition ([9]; 0.0125 %): 3 | Degree of growth inhibition ([9]; 0.025 %): 3

O=C(NC=C(Cl)Cl)c1ccccc1O [Compound No. 20, sodium salt of N-(β,β-dichlorovinyl) salicylamide]
Degree of growth inhibition ([10]; 0.0125 %): 3 | Degree of growth inhibition ([10]; 0.025 %): 3 | Degree of propagation ([11]; 7th day): - | Degree of propagation ([11]; 14th day): - | Degree of propagation ([11]; 21st day): - | Degree of propagation ([12]; 7th day): - | Degree of propagation ([12]; 14th day): - | Degree of propagation ([12]; 21st day): - | Degree of propagation ([13]; 7th day): - | Degree of propagation ([13]; 14th day): - | Degree of propagation ([13]; 21st day): - | inhibition of bacteria, fungi and slime [14]: inhibited for a long time
